Source: patent US11541107B2, “Peptides and T cells for use in immunotherapeutic treatment of various cancers” (Immatics Biotechnologies GmbH, priority 2015, dated 2023)

Experiments:
HLA-A*02 = HLA-A*02 (Homo sapiens, UniProt P04439, D140Y/D185E/D98H/E176V/E277Q/G131W/G231S/I119V/I121R/I166T/I218V/L300P/N151K/N90K/P208A/P217A/Q86G/Q94H/R138H/R169H); assay: MHC binding assay, UV-ligand exchange with beta2m ELISA, HLA-A*02; conditions: binding to HLA-A*02 ranged by peptide exchange yield (UV-ligand exchange, beta2m ELISA)
Source text: Candidate peptides for T cell based therapies according to the present invention were further tested for their MHC binding capacity (affinity). The individual peptide-MHC complexes were produced by UV-ligand exchange, where a UV-sensitive peptide is cleaved upon UV-irradiation, and exchanged with the peptide of interest as analyzed. Only peptide candidates that can effectively bind and stabilize the peptide-receptive MHC molecules prevent dissociation of the MHC complexes. To determine the yield of the exchange reaction, an ELISA was performed based on the detection of the light chain (ß2 m) of stabilized MHC complexes. The assay was performed as generally described in Rodenko et al. (Rodenko et al., 2006).
96 well MAXISorp plates (NUNC) were coated over night with 2 ug/ml streptavidin in PBS at room temperature, washed 4× and blocked for 1 h at 37° C. in 2% BSA containing blocking buffer. […] Peptide-MHC monomers of the UV-exchange reaction were diluted 100 fold in blocking buffer. Samples were incubated for 1 h at 37° C., washed four times, incubated with 2 ug/ml HRP conjugated anti-β2 m for 1h at 37° C., washed again and detected with TMB solution that is stopped with […]. Absorption was measured at 450 nm. Candidate peptides that show a high exchange yield (preferably higher than 50%, most preferred higher than 75%) are generally preferred for a generation and production of antibodies or fragments thereof, and/or T cell receptors or fragments thereof, as they show sufficient avidity to the MHC molecules and prevent dissociation of the MHC complexes.

CD8+ T cells = assay: In vitro T-cell priming assay (aAPCs loaded with peptide/MHC and anti-CD28, pMHC multimer readout; HLA-A*02 and HLA-A*24); type: cell-based, human; conditions: in vitro immunogenicity of HLA class I peptides; for Wells positive [%]: peptide-specific T cells by pMHC multimer staining
Source text: In order to obtain information regarding the immunogenicity of the TUMAPs of the present invention, the inventors performed investigations using an in vitro T-cell priming assay based on repeated stimulations of CD8+ T cells with artificial antigen presenting cells (aAPCs) loaded with peptide/MHC complexes and anti-CD28 antibody.
In order to perform in vitro stimulations by artificial antigen presenting cells loaded with peptide-MHC complex (pMHC) and anti-CD28 antibody, the inventors first isolated CD8+ T cells from fresh HLA-A*02 leukapheresis products via positive selection using CD8 microbeads (Miltenyi Biotec, Bergisch-Gladbach, Germany) of healthy donors obtained from the University clinics Mannheim, Germany, after informed consent.
PBMCs and isolated CD8+ lymphocytes were incubated in T-cell medium (TCM) until use consisting of RPMI-Glutamax (Invitrogen, Karlsruhe, Germany) supplemented with 10% heat inactivated human AB serum (PAN-Biotech, Aidenbach, Germany), 100 U/ml Penicillin/100 μg/ml Streptomycin (Cambrex, Cologne, Germany), 1 mM sodium pyruvate (CC Pro, Oberdorla, Germany), 20 μg/ml Gentamycin (Cambrex). 2.5 ng/ml IL-7 (PromoCell, Heidelberg, Germany) and 10 U/ml IL-2 (Novartis Pharma, Nürnberg, Germany) were also added to the TCM at this step.
Generation of pMHC/anti-CD28 coated beads, T-cell stimulations and readout was performed in a highly defined in vitro system using four different pMHC molecules per stimulation condition and 8 different pMHC molecules per readout condition.
The purified co-stimulatory mouse IgG2a anti human CD28 Ab 9.3 (Jung et al., 1987) was chemically biotinylated using Sulfo-N-hydroxysuccinimidobiotin as recommended by the manufacturer (Perbio, Bonn, Germany). Beads used were 5.6 μm diameter streptavidin coated polystyrene particles (Bangs Laboratories, Illinois, USA).
pMHC used for positive and negative control stimulations were A*0201/MLA-001 (peptide […] (SEQ ID NO. 418) from modified Melan-A/MART-1) and A*0201/DDX5-001 ([…] from DDX5, SEQ ID NO. 419), respectively.
800.000 beads/200 μl were coated in 96-well plates in the presence of 4×12.5 ng different biotin-pMHC, washed and 600 ng biotin anti-CD28 were added subsequently in a volume of 200 μl. Stimulations were initiated in 96-well plates by co-incubating 1×10^6 CD8+ T cells with 2×10^5 washed coated beads in 200 μl TCM supplemented with 5 ng/ml IL-12 (PromoCell) for 3 days at 37° C. Half of the medium was then exchanged by fresh TCM supplemented with 80 U/ml IL-2 and incubating was continued for 4 days at 37° C. This stimulation cycle was performed for a total of three times. For the pMHC multimer readout using 8 different pMHC molecules per condition, a two-dimensional combinatorial coding approach was used as previously described (Andersen et al., 2012) with minor modifications encompassing coupling to 5 different fluorochromes. Finally, multimeric analyses were performed by staining the cells with Live/dead near IR dye (Invitrogen, Karlsruhe, Germany), CD8-FITC antibody clone SK1 (BD, Heidelberg, Germany) and fluorescent pMHC multimers. For analysis, a BD LSRII SORP cytometer equipped with appropriate lasers and filters was used. Peptide specific cells were calculated as percentage of total CD8+ cells. Evaluation of multimeric analysis was done using the FlowJo software (Tree Star, Oregon, USA). In vitro priming of specific multimer+CD8+ lymphocytes was detected by comparing to negative control stimulations.
Exemplary flow cytometry results after TUMAP-specific multimer staining for 2 peptides of the invention are shown in FIGS. 3A-3B together with corresponding negative controls. Results for 5 peptides from the invention are summarized in Table12A. Exemplary flow cytometry results after TUMAP-specific multimer staining for 7 peptides of the invention are shown in FIGS. 4A-4C and FIGS. 5A-5D together with corresponding negative controls.

HLA-A*24 = assay: MHC binding assay, UV-ligand exchange with beta2m ELISA, HLA-A*24; design: species or system human; conditions: binding to HLA-A*24 ranged by peptide exchange yield (UV-ligand exchange, beta2m ELISA)
Summary of the method: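 Peptide–MHC complexes made by UV-ligand exchange of a UV-cleavable peptide. Exchange yield measured by ELISA: monomers diluted 100-fold on streptavidin-coated plates, 1 h at 37°C, detected with HRP anti-β2m (2 ug/ml) and TMB, absorbance at 450 nm.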

Peptide exchange (HLA-A*02) | Peptide exchange (HLA-A*24) | Substance | Wells positive [%] (CD8+ T cells) | also measured
+++ (50%-75% = +++) | – | 84 (FLEEEITRV; listed as Homo sapiens) [compound 84] | – | –
+++ (50%-75% = +++) | – | 85 (STLDGSLHAV; listed as Homo sapiens) [compound 85] | – | –
+++ (50%-75% = +++) | – | 87 (YLTEVFLHVV; listed as Homo sapiens) [compound 87] | – | –
+++ (50%-75% = +++) | – | 88 (ILLNTEDLASL; listed as Homo sapiens) [compound 88] | – | –
+++ (50%-75% = +++) | – | 89 (YLVAHNLLL; listed as Homo sapiens) [compound 89] | – | –
+ (<20% = +) | – | 90 (GAVAEEVLSSI; listed as Homo sapiens) [compound 90] | – | –
+ (<20% = +) | – | 91 (SSLEPQIQPV; listed as Homo sapiens) [compound 91] | – | –
++ (20%-49% = ++) | – | 92 (LLRGPPVARA; listed as Homo sapiens) [compound 92] | – | –
+++ (50%-75% = +++) | – | 93 (SLLTQPIFL; listed as Homo sapiens) [compound 93] | – | –
– | ++++ (>=75% = ++++) | 96 (YYTQYSQTI; listed as Homo sapiens) [compound 96] | + (<20% = +) | –
– | +++ (50%-75% = +++) | 98 (VFPRLHNVLF; listed as Homo sapiens) [compound 98] | + (<20% = +) | –
– | +++ (50%-75% = +++) | 103 (NYIPVKNGKQF; listed as Homo sapiens) [compound 103] | + (<20% = +) | –
– | ++++ (>=75% = ++++) | 104 (SYLTWHQQI; listed as Homo sapiens) [compound 104] | + (<20% = +) | –
– | +++ (50%-75% = +++) | 105 (IYNETITDLL; listed as Homo sapiens) [compound 105] | + (<20% = +) | –
– | +++ (50%-75% = +++) | 106 (IYNETVRDLL; listed as Homo sapiens) [compound 106] | + (<20% = +) | –
– | +++ (50%-75% = +++) | 111 (VYVQILQKL; listed as Homo sapiens) [compound 111] | + (<20% = +) | –
– | +++ (50%-75% = +++) | 115 (RYLNKSFVL; listed as Homo sapiens) [compound 115] | + (<20% = +) | –
– | ++++ (>=75% = ++++) | 132 (RYPALFPVL; listed as Homo sapiens) [compound 132] | + (<20% = +) | –
– | ++++ (>=75% = ++++) | 137 (EYLHNCSYF; listed as Homo sapiens) [compound 137] | + (<20% = +) | –
– | +++ (50%-75% = +++) | 142 (VYVDDIYVI; listed as Homo sapiens) [compound 142] | ++++ (>=70% = ++++) | –
– | ++++ (>=75% = ++++) | 156 (YYMELTKLLL; listed as Homo sapiens) [compound 156] | + (<20% = +) | –

Peptide exchange (HLA-A*02) | Peptide exchange (HLA-A*24) | Substance | Wells positive [%] (CD8+ T cells) | also measured
– | +++ (50%-75% = +++) | 157 (DYIPASGFALF; listed as Homo sapiens) [compound 157] | + (<20% = +) | –
– | +++ (50%-75% = +++) | 158 (IYEETRGVLKVF; listed as Homo sapiens) [compound 158] | + (<20% = +) | –
+++ (50%-75% = +++) | – | 321 (SLWFKPEEL; listed as Homo sapiens) [compound 321] | – | –
+++ (50%-75% = +++) | – | 323 (ILSVVNSQL; listed as Homo sapiens) [compound 323] | – | –
++++ (>=75% = ++++) | – | 324 (AIFDFCPSV; listed as Homo sapiens) [compound 324] | – | –
++ (20%-49% = ++) | – | 325 (RLLPKVQEV; listed as Homo sapiens) [compound 325] | – | –
+++ (50%-75% = +++) | – | 326 (SLLPLVWKI; listed as Homo sapiens) [compound 326] | – | –
+++ (50%-75% = +++) | – | 327 (SIGDIFLKY; listed as Homo sapiens) [compound 327] | – | –
++ (20%-49% = ++) | – | 328 (SVDSAPAAV; listed as Homo sapiens) [compound 328] | – | –
++ (20%-49% = ++) | – | 329 (FAWEPSFRDQV; listed as Homo sapiens) [compound 329] | – | –
+++ (50%-75% = +++) | – | 330 (FLWPKEVEL; listed as Homo sapiens) [compound 330] | – | –
+++ (50%-75% = +++) | – | 331 (AIWKELISL; listed as Homo sapiens) [compound 331] | – | –
+++ (50%-75% = +++) | – | 333 (GTFLEGVAK; listed as Homo sapiens) [compound 333] | – | –
+++ (50%-75% = +++) | – | 334 (GRADALRVL; listed as Homo sapiens) [compound 334] | – | –
++ (20%-49% = ++) | – | 335 (VLLAAGPSAA; listed as Homo sapiens) [compound 335] | – | –
++ (20%-49% = ++) | – | 336 (GLMDGSPHFL; listed as Homo sapiens) [compound 336] | – | –
+++ (50%-75% = +++) | – | 337 (KVLGKIEKV; listed as Homo sapiens) [compound 337] | – | –
++ (20%-49% = ++) | – | 338 (LLYDGKLSSA; listed as Homo sapiens) [compound 338] | – | –
++ (20%-49% = ++) | – | 339 (VLGPGPPPL; listed as Homo sapiens) [compound 339] | – | –
++ (20%-49% = ++) | – | 340 (SVAKTILKR; listed as Homo sapiens) [compound 340] | – | –
– | – | 407 (VYGIRLEHF; listed as Homo sapiens) [compound 407] | – | wells (CD8+ T cells; share of positive wells after stimulation of CD8+ T cells of healthy donors): +++ (50%-69%= +++)
